Here are results for five compounds from patent US12642795B2, “MRGPRX2 antagonist for the treatment of pseudo allergic reactions” (The University of Hong Kong, priority 2021, dated 2026).

As usually defined, the pIC50 is the IC50 on a negative log10 scale, so that one unit is a factor of ten. A higher pIC50 goes with a small IC50.

One test relates to Human LAD-2 mast cells. Description: β-Hexosaminidase MCs degranulation assay. The settings on record: LAD2, LAD-2 MCs, followed by EC90 concentration (10 μM) of C48/80. It counts as cell-based. As for the experimental part:
Human LAD-2 mast cells were seeded at 2×10^4 cells/well/80 μL in a 96-well plate. A 10× stock of antagonist were prepared in HEPES buffer (HEPES (10 mM), NaCl (137 mM), KCl (2.7 mM), Na2HPO4·7H2O (0.4 mM), glucose (5.6 mM), CaCl2·2H2O (1.8 mM), MgSO4·7H2O (1.3 mM), bovine serum albumin (0.04%), pH 7.4). […] The plate was spun at 450×g for 5 minutes at room temperature, and 50 μL of supernatant was aliquoted to a new 96 well plate. The cells were lysed with 100 μL of 0.1% Triton X-100, and 50 μL of lysate was aliquoted to another 96 well plates. A 1.3 mg/ml solution of the substrate PNAG (4-Nitrophenyl N-acetyl-β-D-glucosaminide) was prepared in 0.1 M citric acid/sodium citrate buffer (pH 4.5, 24.087 g/L Sodium Citrate dihydrate, and 3.471 g/L Citric Acid). 50 μL of PNAG was added to each well of supernatant and lysate, and cells were incubated for 90 min at 37° C. (without CO2). The reaction was stopped by adding 50 μL of 0.4 M Glycine buffer. The extent of yellow color was measured at 405 nm using Victor 4× plate reader (PerkinElmer), and percentage MCs degranulation (β-hexosaminidase release) was calculated by using the formula; % MCs degranulation: […]

The subject of the next test is Human LAD-2 MCs. Description: Intracellular Ca2+ flux assay (Fluo-4 NW). The settings on record: LAD2 MCs; for reduction of C48/80 induced Ca2+ flux: C48/80 EC90 concentration; for efficacy in Ca2+ flux reduction at 12.5 μM, 25 μM and 50 μM: ****P<0.0001 vs C48/80. The test is classed as cell-based. As for the experimental part: The intracellular Ca^2+ flux was measured in human LAD-2 MCs by using the Fluo-4 NW calcium assay kit and the protocol according to the manufacturer (Molecular Probe, Invitrogen, USA). Briefly, LAD-2 cells were plated in a 96-well black well plate (SPL Life Sciences) at a density of 1×10^5 cells/well/40 μL in assay buffer and incubated for 1 h at 37° C. incubators. After 1 h, 40 μL of the 2× dye loading solution and antagonist or buffer was added to the cells (10 μL of 10× stock). […] After one hour of incubation, a graded concentration of agonist or buffer was added to the cells (10 μL of 10× stock). The fluorescence was measured at an excitation wavelength of 494 nm and an emission wavelength of 516 nm using Victor 4× plate reader (PerkinElmer) for 150 seconds. The ΔF was calculated by […] and plotted by using Graph Pad Prism.
(A change in cytosolic calcium serves as a functional read-out for many receptors and channels.)

The target in the next test is T1, MRGPRX2 (Homo sapiens, UniProt Q96LB1).
T1 construct: expressed in transfected cells; host or cells: HTLA cells
T1 sequence (Q96LB1 1-330): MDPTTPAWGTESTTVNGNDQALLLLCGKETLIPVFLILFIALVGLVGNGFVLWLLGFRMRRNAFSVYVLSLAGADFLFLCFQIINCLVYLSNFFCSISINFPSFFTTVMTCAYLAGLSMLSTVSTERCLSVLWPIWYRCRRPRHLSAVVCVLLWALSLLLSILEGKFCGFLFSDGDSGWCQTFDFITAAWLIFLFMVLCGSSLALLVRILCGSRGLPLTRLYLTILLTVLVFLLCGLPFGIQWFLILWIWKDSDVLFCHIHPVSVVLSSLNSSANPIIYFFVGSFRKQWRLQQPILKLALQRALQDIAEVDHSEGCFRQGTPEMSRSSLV
Description: MRGPRX2 activation assay (PRESTO-Tango assay). It counts as cell-based. The settings on record: MRGPRX2-Tango transfected HTLA cells, followed by EC90 concentration (10 μM) of C48/80. The protocol: On day 1 of the experiment, HTLA cells were seeded at 1×10^6 cells per 100 mm cell culture dish for transfection. On the following day (day 2), HTLA cells were transfected with Tango MRGPRX2 DNA using the Lipofectamine transfection reagent (Thermo Fischer Scientific). On day 3, Tango MRGPRX2 transfected cells were transferred into 96-well white clear-bottom cell culture plates at a density of 2×10^4 cells/well/80 μL (PerkinElmer Life Science).

Test [1] relates to C57/BL/6N mice. Description: In-vivo systemic anaphylaxis mice model (C48/80 induced). Further details: species or system mouse. The settings on record: 5 mg/kg intraperitoneally, C48/80 8 mg/kg intraperitoneally. As for the experimental part: Animals (C57/BL/6N aged 6-8 weeks old, n=6-8/group) were transported to the procedure area the day before injections to minimize stress. The antagonists (GE0117, GE1109, or GE1111) or vehicle was injected intraperitoneally, and mice were kept in the cage for 30 minutes. After 30 minutes of saline (negative control), 8 mg/kg of C48/80 was injected intraperitoneally. The volume of intraperitoneal injection was 10 ml/kg body weight as per AAALAC guidelines. The injection site was swabbed with cotton soaked in 70% alcohol, and the mouse was placed in a separate cage as one mouse per cage. Body core temperature was measured before (basal) and after the injections with an IR non-contact thermometer for one hour. Also, mice were monitored for anaphylaxis symptoms/severity and scored from 0-5 for 1 h or until death following C48/80 injection, whichever was first. Briefly, the scoring system was followed as 0, no symptoms; 1, scratching and rubbing around the nose and head; 2, puffiness around the eyes and mouth, diarrhea, pilar erecti, reduced activity, and/or decreased activity with an increased respiratory rate; 3, wheezing, labored respiration, and cyanosis around the mouth and the tail; 4, no activity after prodding or tremor and convulsion; 5, death. The body core temperature and anaphylaxis score were plotted using Graph Pad Prism.

For test [2], the system named is C57/BL/6N mice. Description: In-vivo local anaphylaxis/pseudo allergic mice model (C48/80 induced). On the set-up: species or system mouse. The settings on record: 5 mg/kg intraperitoneally, vs C48/80 mice; for increase in paw thickness: 15 min after C48/80 (30 μg/ml) in paw; for Evans blue dye extravasation: 15 min after C48/80 (30 μg/ml). The text has this: Young adult male mice (C57/BL/6N aged 6-8 weeks old, n=6/group) were used to measure the local anaphylaxis activity by measuring Evans blue tissue extravasation in paw and ear tissue. The animal experiments were approved by the Committee on the Use of Live Animals in Teaching and Research (CULATR) (Animal ethical approval number CULATR 5125-19). Mice were anesthetized via intraperitoneal injection of ketamine and xylazine, and paw thickness was measure using a Vernier caliper. The antagonists (GE0117, GE1109, and GE1111) were injected at a dose of 5 mg/kg body weight via intraperitoneal injection followed by a tail vein injection of 50 μL 12.5% Evans blue in saline (irrespective of the bodyweight). After thirty minutes, C48/80 (10 μL of 30 μg/ml) was injected into one paw and ear, while saline was injected into the other paw and ear as a negative control. After fifteen minutes, the paw and ear tissue were photographed, and the paw thicknesses were measured again to calculate % increase in paw thickness. Mice were euthanized by cervical dislocation under anesthesia, and the collected paw and ear tissues were dried at 50° C. for 24 hours and weighed separately. Evans blue was extracted with formamide (500 μL/tissue) by incubating at 50° C. for 24 h. The supernatant was aliquoted into 96-well plates (200 μL/well, duplicate), and OD was measure at 595 nm using a Victor 4× plate reader (PerkinElmer). The paw edema/inflammation was measured as % increase in paw thickness=

The test system of another test is human LAD2 MCs. Description: Monocyte chemoattractant protein-1 (MCP-1) measurement by ELISA. The test is classed as cell-based. The settings on record: 12.5 μM, 25 μM and 50 μM; compared to C48/80 control. The protocol:
MCP-1 and PGD2 were measured from human LAD2 MCs via individual ELISA kits. Briefly, MCs were seeded at a density of 1.5×10^5 cells/80 μL/well in a 96 well plate in complete Stem-Pro 34 media. […] The cells were centrifuged to collect the supernatant and stored at −80° C. until analyzed. […] After 24 hours, cells were centrifuged to discard the media and lysed with 0.1M potassium phosphate via sonication. The supernatant of cell lysate was collected and stored at −80° C. until analyzed. MCP-1 (Abcam, Cambridge, UK) and PGD2 (Cayman Chemicals, MI, USA) were quantified by ELISA according to manufacturer instruction.
For orientation: In an ELISA, binding on a coated surface is turned into a signal by an enzyme label.

pIC50: −log10 of the molar value.

For `COC(=O)c1ccc2cc(-c3cc4c5c(cccc5c3)C(=O)N(C)C4=O)c(C(=O)OC)cc2c1` [GE0118], the pIC50 with Human LAD-2 mast cells is 4.74; against MRGPRX2, 5.05. Moreover, the “reduction of C48/80 induced Ca2+ flux” value in the test on Human LAD-2 MCs is “significant concentration-dependent reduction”.

Take `COC(=O)c1ccc2cc(-c3cc4c5c(c(O)ccc5c3)C(C)C(C=O)=C4)c(C(=O)OC)cc2c1` (stereo not drawn) [GE1110]: the pIC50 in the test with Human LAD-2 mast cells is 4.63. Also, in the test with Human LAD-2 MCs, the “efficacy in Ca2+ flux reduction at 12.5 μM, 25 μM and 50 μM” value is “higher efficacy at all three concentrations”; the “reduction of C48/80 induced Ca2+ flux” value is reported as “significant concentration-dependent reduction”. In addition, the negative-log IC50 (pIC50) against MRGPRX2 is 5.05.

`O=c1c(-c2ccc(O)cc2)coc2cc(O)cc(O)c12` [genistein, reference compound] showed a pIC50 in the test with Human LAD-2 mast cells of 4.52. Besides, the “reduction of C48/80 induced Ca2+ flux” value with Human LAD-2 MCs was “significant (**P<0.001) Ca^2+ flux reduction at 50 μM concentration only”. In addition, the “C48/80 induced body temperature change at 35 minutes” value with C57/BL/6N mice [1] is recorded as “significantly reversed the body temperature change”. In the test with C57/BL/6N mice [2], the “increase in paw thickness” value was “significant (*P<0.05) antagonizing activity” and the “Evans blue dye extravasation” value was “significant (*P<0.05) antagonizing activity”. For the same compound, the pIC50 against MRGPRX2 is 4.50.

`COC(=O)c1ccc2cc(-c3cc4c5c(cccc5c3)C(=O)N(C)C4=O)c(NC(N)=O)cc2c1` [GE0117]: the “inhibition of C48/80 induced MCP-1 release” value in the test on human LAD2 MCs is “significantly inhibits the release of MCP-1 at all the tested concentrations”. The compound further showed a negative-log IC50 (pIC50) in the test on Human LAD-2 mast cells of 4.68. In the test with Human LAD-2 MCs, the “efficacy in Ca2+ flux reduction at 12.5 μM, 25 μM and 50 μM” value was “higher efficacy at all three concentrations”; the “reduction of C48/80 induced Ca2+ flux” value was “significant concentration-dependent reduction”. For the same compound, the “C48/80 induced body temperature change at 35 minutes” value in the test with C57/BL/6N mice [1] was “significantly reversed the body temperature change”. In the test with C57/BL/6N mice [2], the “increase in paw thickness” value is “significantly (***P<0.001) attenuated” and the “Evans blue dye extravasation” value is “significantly (***P<0.001) attenuated”. For the same compound, the pIC50 against MRGPRX2 is 5.01.

Take `COC(=O)c1cc2cc(NC(N)=O)ccc2cc1-c1cc2c3c(cccc3c1)C(=O)N(C)C2=O` [GE0119]: the negative-log IC50 (pIC50) in the test on Human LAD-2 mast cells is 4.59; against MRGPRX2, 4.70. In the test on Human LAD-2 MCs, the “reduction of C48/80 induced Ca2+ flux” value is listed as “significant concentration-dependent reduction”.
